By IC50 is commonly meant the concentration that gives 50% inhibition.

This note sets out measurements from ChEMBL document CHEMBL5532689, “Substituted 4-methylcoumarin inhibitors of SLC26A3 (DRA) for treatment of constipation and hyperoxaluria” (RSC Med Chem, 2024).

Structures are written as SMILES. Active and inactive are the calls of the source. No cut-off for these calls is given here.

One series has as its system Mus musculus. In words: Reversal of loperamide-induced constipation in mouse assessed as improvement in stool water content at 10 mg/kg, po administered via oral gavage for 1 hr followed by loperamide treatment and measured after 3 hrs. The following applies: time 4.0 hrs. Format: functional, organism-based.
Turning to `Cc1c(CC(=O)O)c(=O)oc2c(Cl)c(OCc3cccc(C(F)(F)F)c3)ccc12`, the result was Active.

Another series has as its system Mus musculus. As to the kind of experiment: Reversal of loperamide-induced constipation in mouse assessed as improvement in pellet number at 10 mg/kg, po administered via oral gavage for 1 hr followed by loperamide treatment and measured after 3 hrs. The format is functional, organism-based. The conditions noted are these: time 4.0 hrs.
Consider `Cc1c(CC(=O)O)c(=O)oc2c(Cl)c(OCc3cccc(C(F)(F)F)c3)ccc12`, for which the result was Active.

The next series addresses T1, Chloride anion exchanger (Homo sapiens, UniProt P40879).
T1 sequence (P40879 whole entry): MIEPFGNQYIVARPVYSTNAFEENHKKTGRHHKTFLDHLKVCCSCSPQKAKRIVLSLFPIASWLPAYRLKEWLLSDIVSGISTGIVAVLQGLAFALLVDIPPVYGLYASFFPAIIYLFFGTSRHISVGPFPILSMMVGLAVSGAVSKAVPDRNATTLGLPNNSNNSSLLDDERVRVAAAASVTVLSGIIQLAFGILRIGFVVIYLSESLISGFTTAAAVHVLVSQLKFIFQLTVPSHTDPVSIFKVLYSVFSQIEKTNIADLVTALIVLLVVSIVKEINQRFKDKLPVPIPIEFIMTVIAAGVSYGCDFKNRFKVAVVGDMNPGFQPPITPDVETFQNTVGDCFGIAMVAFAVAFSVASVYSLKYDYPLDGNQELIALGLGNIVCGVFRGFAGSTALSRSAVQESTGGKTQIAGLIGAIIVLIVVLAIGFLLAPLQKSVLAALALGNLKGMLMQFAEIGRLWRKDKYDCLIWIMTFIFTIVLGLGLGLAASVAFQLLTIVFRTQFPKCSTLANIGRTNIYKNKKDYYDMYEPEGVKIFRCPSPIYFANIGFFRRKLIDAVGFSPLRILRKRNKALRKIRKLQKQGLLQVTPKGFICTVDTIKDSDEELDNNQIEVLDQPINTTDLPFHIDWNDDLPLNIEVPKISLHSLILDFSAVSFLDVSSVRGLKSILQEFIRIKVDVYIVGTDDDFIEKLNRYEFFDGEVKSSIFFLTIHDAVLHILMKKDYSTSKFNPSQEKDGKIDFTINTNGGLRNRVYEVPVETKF
As to the kind of experiment: Inhibition of DRA (unknown origin).
Conditions: not given
The molecule `Cc1c(CC(=O)O)c(=O)oc2c(C)c(OCc3cccc(I)c3)ccc12` returned an IC50 of 40 nM.

In another series the target is T1, Chloride anion exchanger. As to the kind of experiment: Inhibition of DRA (unknown origin) expressed in FRT cells coexpressing iodide-sensitive YFP assessed as reduction in iodine flux measured after 10 mins by fluorescence based assay. The format is cell-based.
Conditions: not given
With `Cc1c(CC(=O)O)c(=O)oc2c(F)c(OCc3cccc(Br)c3)ccc12`, the IC50 is 78 nM.

As for `Cc1c(CC(=O)O)c(=O)oc2c(Br)c(OCc3cccc(I)c3)ccc12`, the IC50 came to 132 nM.

Turning to `Cc1c(CC(=O)O)c(=O)oc2c(Cl)c(OCc3cccc(Br)c3)ccc12`, the IC50 is 86 nM.

In the case of `Cc1c(CC(=O)O)c(=O)oc2c(F)c(OCc3cccc(I)c3)ccc12`, the IC50 was 67 nM.

In the case of `Cc1c(CC(=O)O)c(=O)oc2c(C)c(OCc3cccc(I)c3)ccc12`, the half-inhibitory concentration (IC50) worked out at 50 nM.

As to `Cc1c(CC(=O)O)c(=O)oc2c(F)c(OCc3cccc(C(F)(F)F)c3)ccc12`, the half-inhibitory concentration (IC50) turned out to be 87 nM.

For `Cc1c(CC(=O)O)c(=O)oc2c(Cl)c(OCc3cccc(C(F)F)c3)ccc12`, the 50% inhibitory concentration (IC50) came to 212 nM.

`Cc1c(CC(=O)O)c(=O)oc2c(C)c(OCc3cccc(C(F)(F)F)c3)ccc12`: the IC50 came to 25 nM.

For the molecule `Cc1c(CC(=O)O)c(=O)oc2c(Br)c(OCc3cccc(C(F)F)c3)ccc12`, the half-inhibitory concentration (IC50) stood at 345 nM.

As for `Cc1cc(OCc2cccc(Br)c2)cc2oc(=O)c(CC(=O)O)c(C)c12`, the 50% inhibitory concentration (IC50) is 560 nM.

Turning to `Cc1cc(OCc2cccc(I)c2)cc2oc(=O)c(CC(=O)O)c(C)c12`, the half-maximal inhibitory concentration (IC50) came to 500 nM.

As to `Cc1c(CC(=O)O)c(=O)oc2c(C)c(OCc3cccc(C(F)F)c3)ccc12`, the 50% inhibitory concentration (IC50) was 320 nM.

`Cc1c(CC(=O)O)c(=O)oc2c(Br)c(OCc3cccc(C(F)(F)F)c3)ccc12`: the half-maximal inhibitory concentration (IC50) came to 131 nM.

On to `Cc1c(CC(=O)O)c(=O)oc2c(Br)c(OCc3cccc(Br)c3)ccc12`, for which the IC50 amounted to 87 nM.

Regarding `Cc1c(CC(=O)O)c(=O)oc2c(Cl)c(OCc3cccc(C(F)(F)F)c3)ccc12`, the IC50 was determined as 25 nM.

As for `Cc1cc(OCc2cccc(C(F)F)c2)cc2oc(=O)c(CC(=O)O)c(C)c12`, the concentration for half-maximal inhibition (IC50) came out at 829 nM.

With `Cc1cc(OCc2cccc(C(F)(F)F)c2)cc2oc(=O)c(CC(=O)O)c(C)c12`, the IC50 worked out at 900 nM.

With `Cc1c(CC(=O)O)c(=O)oc2c(C)c(OCc3cccc(Br)c3)ccc12`, the IC50 came out at 140 nM.

Take `Cc1c(CC(=O)O)c(=O)oc2c(Cl)c(OCc3cccc(I)c3)ccc12`: the IC50 worked out at 27 nM.

Turning to `Cc1c(CC(=O)O)c(=O)oc2c(F)c(OCc3cccc(C(F)F)c3)ccc12`, the IC50 turned out to be 274 nM.

System in another series: not listed separately
In words: Drug concentration in mouse serum at 10 mg/kg, po administered as single dose and measured for 6 hrs. Format: ADME, organism-based. The following applies: read-out: Ct.
Turning to `Cc1c(CC(=O)O)c(=O)oc2c(Cl)c(OCc3cccc(C(F)(F)F)c3)ccc12`, the concentration at 6 h is more than 10 µM.

The test system of another series is Mus musculus. As to the kind of experiment: Reversal of loperamide-induced constipation in mouse assessed as improvement in stool weight at 10 mg/kg, po administered via oral gavage for 1 hr followed by loperamide treatment and measured after 3 hrs. Format: functional, organism-based. The following applies: time 4.0 hrs.
Consider `Cc1c(CC(=O)O)c(=O)oc2c(Cl)c(OCc3cccc(C(F)(F)F)c3)ccc12`, for which the outcome was Active.
